Source: patent US4605744A, “Imidazole derivatives” (Hoffmann-La Roche Inc., priority 1985, dated 1986)
Structures can show the parent of a compound that is named as a salt. Where two headings read alike, the source gives them in different places.

What was measured:
Test in all cases: In vitro antibacterial activity (MIC)
Type in all cases: cell-based
[1] = test system: C. diversus CDC 1663-72; conditions: Citrobacter koseri, CDC166372; C. diversus CDC 1663-72; read-out: MIC
Protocol: (§1) Drug dilutions are prepared in Mueller-Hinton broth ranging from 128 to 0.008 μg/ml. The diluted agents are dispensed in 100 μl amounts into the wells of a 96-well tray and used immediately or frozen at -10° to -70° C. until needed. Using an automated inoculator, 1.5 μl of a 10^-2 dilution of an overnight culture is added to each well of the tray. The tops of the trays are then sealed using transparent tape and incubated overnight at 37° C. The trays are examined with the aid of a viewer. The lowest concentration at which no growth is observed is considered to be the minimum inhibitory concentration (MIC).

[2] = test system: C. freundii 8ASM; conditions: Citrobacter freundii, 8ASM, C. freundii 8ASM; read-out: MIC
Protocol: as §1

[3] = test system: C. freundii CDC6; conditions: Citrobacter freundii, CDC6, C. freundii CDC6; read-out: MIC
Protocol: as §1

[4] = test system: E. aerogenes 503-478; conditions: Klebsiella aerogenes, 503478, E. aerogenes 503-478; read-out: MIC
Protocol: as §1

[5] = test system: E. cloacae 214; conditions: Enterobacter cloacae, 214, E. cloacae 214; read-out: MIC
Protocol: as §1

[6] = test system: E. cloacae 5699; conditions: Enterobacter cloacae, 5699, E. cloacae 5699; read-out: MIC
Protocol: as §1

[7] = test system: E. cloacae 6951; conditions: Enterobacter cloacae, 6951, E. cloacae 6951; read-out: MIC
Protocol: as §1

[8] = test system: E. cloacae 9295; conditions: Enterobacter cloacae, 9295, E. cloacae 9295; read-out: MIC
Protocol: as §1

[9] = test system: E. cloacae 9570A; conditions: Enterobacter cloacae, read-out: MIC
Protocol: as §1

[10] = test system: E. cloacae P99; conditions: Enterobacter cloacae, P99, E. cloacae P99
Protocol: as §1

[11] = test system: E. coli 48
Protocol: as §1

[12] = test system: E. coli 5152; conditions: Escherichia coli, 5152, E. coli 5152; read-out: MIC
Protocol: as §1

[13] = test system: E. coli R-563; conditions: Escherichia coli, R563
Protocol: as §1

[14] = test system: K. pneumoniae 35; conditions: Klebsiella pneumoniae; K. pneumoniae 35; read-out: MIC
Protocol: as §1

[15] = test system: K. pneumoniae 503-964; conditions: Klebsiella pneumoniae, 503964; K. pneumoniae 503-964; read-out: MIC
Protocol: as §1

[16] = test system: K. pneumoniae 503-994; conditions: Klebsiella pneumoniae, 503994, K. pneumoniae 503-994; read-out: MIC
Protocol: as §1

[17] = test system: K. pneumoniae 5096
Protocol: as §1

[18] = test system: K. pneumoniae 8357; conditions: Klebsiella pneumoniae, 8357, K. pneumoniae 8357; read-out: MIC
Protocol: as §1

[19] = test system: K. pneumoniae HE7; conditions: Klebsiella pneumoniae; K. pneumoniae HE7; read-out: MIC
Protocol: as §1

[20] = test system: P. mirabilis 2; conditions: Proteus mirabilis, 2, P. mirabilis 2; read-out: MIC
Protocol: as §1

[21] = test system: P. mirabilis 620A; conditions: Proteus mirabilis, 620A, P. mirabilis 620A; read-out: MIC
Protocol: as §1

[22] = test system: P. rettgeri ATCC 9250; conditions: Providencia rettgeri, ATCC9250, P. rettgeri ATCC 9250; read-out: MIC
Protocol: as §1

[23] = test system: P. vulgaris 100; conditions: Proteus vulgaris; P. vulgaris 100; read-out: MIC
Protocol: as §1

[24] = test system: P. vulgaris ATCC 6380; conditions: Proteus vulgaris, ATCC6380, P. vulgaris ATCC 6380; read-out: MIC
Protocol: as §1

[25] = test system: S. aureus Smith; conditions: Staphylococcus aureus, S. aureus Smith; read-out: MIC
Protocol: as §1

[26] = test system: S. marcescens 5805; conditions: Serratia marcescens, 5805, S. marcescens 5805; read-out: MIC
Protocol: as §1

[27] = test system: S. marcescens S147; conditions: Serratia marcescens; S. marcescens S147; read-out: MIC
Protocol: as §1

[28] = test system: S. marcescens S2; conditions: Serratia marcescens; S. marcescens S2; read-out: MIC
Protocol: as §1

[29] = test system: S. marcescens S3; conditions: Serratia marcescens; S. marcescens S3; read-out: MIC
Protocol: as §1

[30] = test system: S. marcescens S5; conditions: Serratia marcescens, S5, S. marcescens S5; read-out: MIC
Protocol: as §1

[31] = test system: S. marcescens SM; conditions: Serratia marcescens, read-out: MIC
Protocol: as §1

[32] = test system: S. typhi P58A; conditions: Salmonella enterica, TYPHI
Protocol: as §1

[33] = test system: P. aeruginosa 503-56; conditions: Pseudomonas aeruginosa, 50356, P. aeruginosa 503-56; read-out: MIC
Protocol: as §1

CC1(C)S[C@@H]2[C@H](N=CN3CCC(CCCn4ccnc4CO)CC3)C(=O)N2[C@H]1C(=O)O [R, [2S-(2alpha,5alpha,6beta)]-6-[[[4-[3-[2-(hydroxymethyl)-1H-imidazol-1-yl]propyl-1-piperidinyl]methylene]amino]-3,3-dimethyl-7-oxo-4-thia-1-azabicyclo[3.2.0]heptane-2-carboxylic acid hydrochloride 1.1 molar hydrate]
MIC [1]: 0.016 µg/mL | MIC [2]: < 0.008 µg/mL | MIC [3]: 0.062 µg/mL | MIC [4]: 0.5 µg/mL | MIC [5]: 0.5 µg/mL | MIC [6]: 0.062 µg/mL | MIC [7]: 8 µg/mL | MIC [8]: 0.125 µg/mL | MIC [9]: 0.062 µg/mL | MIC [10]: 0.062 µg/mL | MIC ([11]; Escherichia coli, 48, E. coli 48, read-out: MIC): 0.016 µg/mL | MIC [12]: 4 µg/mL | MIC [13]: 4 µg/mL | MIC [14]: 0.062 µg/mL | MIC [15]: 0.016 µg/mL | MIC [16]: 0.016 µg/mL | MIC ([17]; Klebsiella pneumoniae, 5096, K. pneumoniae 5096): 8 µg/mL | MIC [18]: 0.062 µg/mL | MIC [19]: > 128 µg/mL | MIC [20]: 0.25 µg/mL | MIC [21]: 64 µg/mL | MIC [22]: 0.062 µg/mL | MIC [23]: 2 µg/mL | MIC [24]: < 0.008 µg/mL | MIC [25]: 8 µg/mL | MIC [26]: 1 µg/mL | MIC [27]: 0.125 µg/mL | MIC [28]: 0.125 µg/mL | MIC [29]: 0.125 µg/mL | MIC [30]: 1 µg/mL | MIC [31]: 0.062 µg/mL | MIC [32]: 0.062 µg/mL

CN(C)C=Nc1nccn1CCCC1CCN(C=N[C@@H]2C(=O)N3[C@@H]2SC(C)(C)[C@@H]3C(=O)O)CC1 [S, [2S-(2alpha,5alpha,6beta)]-6-[[[4-[3-[2-[[(dimethylamino)methylene]amino]-1H-imidazol-1-yl]propyl]-1-piperidinyl]methylene]amino]-3,3-dimethyl-7-oxo-4-thia-1-azabicyclo[3.2.0]heptane-2-carboxylic acid 1.7 molar hydrochloride 2.6 molar hydrate]
MIC [1]: 0.5 µg/mL | MIC [2]: 0.125 µg/mL | MIC [3]: 0.5 µg/mL | MIC [4]: 2 µg/mL | MIC [5]: 4 µg/mL | MIC [6]: 1 µg/mL | MIC [7]: 8 µg/mL | MIC [8]: 1 µg/mL | MIC [9]: 1 µg/mL | MIC [10]: 1 µg/mL | MIC ([11]; Escherichia coli, 48): 0.5 µg/mL | MIC [12]: 8 µg/mL | MIC [13]: 8 µg/mL | MIC [14]: 0.5 µg/mL | MIC [15]: 0.5 µg/mL | MIC [16]: 0.5 µg/mL | MIC ([17]; Klebsiella pneumoniae, K. pneumoniae 5096, read-out: MIC): > 128 µg/mL | MIC [18]: 0.5 µg/mL | MIC [19]: > 128 µg/mL | MIC [33]: > 128 µg/mL | MIC [20]: 2 µg/mL | MIC [21]: > 128 µg/mL | MIC [22]: 0.25 µg/mL | MIC [23]: 8 µg/mL | MIC [24]: 1 µg/mL | MIC [25]: 8 µg/mL | MIC [26]: 4 µg/mL | MIC [27]: 2 µg/mL | MIC [28]: 2 µg/mL | MIC [29]: 2 µg/mL | MIC [30]: 4 µg/mL | MIC [31]: 2 µg/mL | MIC [32]: 0.25 µg/mL
